Molecules are shown by their SMILES.

Assay [1] concerns B16-F10-luc2. In words: Cytotoxicity against mouse B16-F10-Luc2 cells expressing human EGFR measured after 72 hrs by resazurin assay. In kind it is cell-based. Conditions: B16-F10-luc2, 72 h. (The colour change of resazurin is a common sign of viable cells or microbes.)
The subject of assay [2] is B16-F10-luc2. The assay can be described thus: Cytotoxicity against mouse B16-F10-Luc2 cells expressing human EGFR measured after 72 hrs in presence of AB-TCO3 conjugates by resazurin assay. Format: functional, cell-based. The conditions noted are these: B16-F10-luc2, 72 h.
The test system of assay [3] is B16-F10-luc2. The assay can be described thus: Cytotoxicity against mouse B16-F10-Luc2 cells in the measured after 72 hrs in presence of AB-TCO3 conjugate by resazurin assay. In kind it is functional, cell-based. The conditions noted are these: B16-F10-luc2, 72 h.
Assay [4] has as its system B16-F10-luc2. In words: Cytotoxicity against mouse B16-F10-Luc2 cells measured after 72 hrs in presence of AB-TCO2 conjugate by resazurin assay. Format: functional, cell-based. The conditions noted are these: B16-F10-luc2, 72 h.
In assay [5] the test system is B16-F10-luc2. The assay can be described thus: Anti tumour activity in C57BL/6 mouse implanted with B16-F10-Luc2 murine cells assessed as median survival time at 5.9 mg/kg, iv administered for 6 hrs followed by antibody conjugate treatment. In kind it is functional.
Assay [6] has as its system B16-F10-luc2. In words: Cytotoxicity against mouse B16-F10-Luc2 cells measured after 72 hrs by resazurin assay. In kind it is cell-based. The conditions noted are these: B16-F10-luc2, 72 h.
The test system of assay [7] is B16-F10-luc2. In words: Cytotoxicity against mouse B16-F10-Luc2 cells expressing human EGFR measured after 72 hrs in presence of AB-TCO2 conjugates by resazurin assay. Format: functional, cell-based. Conditions: B16-F10-luc2, 72 h.
The subject of assay [8] is B16-F10-luc2. The assay can be described thus: Cytotoxicity against mouse B16-F10-Luc2 cells expressing human EGFR measured after 72 hrs in presence of AB-TCO4 conjugates by resazurin assay. In kind it is functional, cell-based. Conditions: B16-F10-luc2, 72 h.
Assay [9] relates to B16-F10-luc2. In words: Anti tumour activity in C57BL/6 mouse implanted with B16-F10-Luc2 murine cells assessed as median survival time at 4.5 mg/kg, ip administered for 24 hrs followed by antibody conjugate treatment. Format: functional.
The subject of assay [10] is B16-F10-luc2. In words: Cytotoxicity against mouse B16-F10-Luc2 cells expressing EGFR measured after 72 hrs in absence of cetuximab by resazurin assay. Conditions: B16-F10-luc2, 72 h. In kind it is functional, cell-based.
The test system of assay [11] is B16-F10-luc2. The assay can be described thus: Cytotoxicity against mouse B16-F10-Luc2 cells expressing EGFR measured after 72 hrs in presence of 3.3 uM cetuximab by resazurin assay. In kind it is functional, cell-based. Conditions: B16-F10-luc2, 72 h.

On to `COc1cccc2c1C(=O)c1c(O)c3c(c(O)c1C2=O)C[C@@](O)(C(=O)CO)C[C@@H]3O[C@H]1C[C@H](NC(=O)OCc2ccc(N=[N+]=[N-])cc2)[C@H](O)[C@H](C)O1`, for which the IC50 in the assay on B16-F10-luc2 [1] amounted to 1680 nM; in the assay on B16-F10-luc2 [2] it was 120 nM; in the assay with B16-F10-luc2 [3], 3440 nM; in the assay with B16-F10-luc2 [4] it was 5140 nM; with B16-F10-luc2 [6], 4490 nM; with B16-F10-luc2 [7] it was 780 nM. In addition, the IC50 in the assay on B16-F10-luc2 [8] was found to be 2090 nM. In addition, in the assay on B16-F10-luc2 [5], the MST came to 26 days.

Take `COc1cccc2c1C(=O)c1c(O)c3c(c(O)c1C2=O)C[C@@](O)(C(=O)CO)C[C@@H]3O[C@H]1C[C@H](N)[C@H](O)[C@H](C)O1` [DOXORUBICIN]: in the assay on B16-F10-luc2 [9], the MST was found to be 39 days. Also, the 50% inhibitory concentration (IC50) amounted to 40 nM in the assay on B16-F10-luc2 [1], 110 nM with B16-F10-luc2 [6], 40 nM with B16-F10-luc2 [10] and 90 nM in the assay with B16-F10-luc2 [11].

In general, IC50 refers to the concentration that inhibits the measured activity by half.
